Measurements from patent publication US6849612B2, “Oligonucleotide modulation of cell adhesion” (ISIS Pharmaceuticals, Inc., priority 1993, dated 2005).
Strand notation (5' to 3'): a small letter for the sugar, then the base; units joined by * are phosphorothioate-linked, units joined directly phosphodiester-linked; [ ] holds rarer units or linkages, { } end groups; capitals alone tell only the bases. d = 2'-deoxy (DNA)

Tests used:
ICAM-1 = experiment: ELISA screening for ICAM-1 expression in interleukin-1β-stimulated cells (HUVEC and A549); format: cell-based, human; details: interleukin-1β-stimulated cells, two cell lines (HUVEC, A549)
VCAM-1 = experiment: ELISA of VCAM-1 expression in TNF-stimulated HUVEC; format: cell-based, human; details: for VCAM-1 EXPRESSION 30 nM oligo (VCAM-1 expression is given as % of control) / VCAM-1 EXPRESSION 50 nM oligo (VCAM-1 expression is given as % of control): TNF-α 16 hours; for IC50: TNF-α, read-out: IC50 for inhibition of VCAM-1 expression (asterisk)
Procedure: Primary human umbilical vein endothelial (HUVEC) cells, passage 2 to 5, were plated in 96-well plates and allowed to reach confluence. Cells were washed three times with Opti-MEM (GIBCO, Grand Island N.Y.). Cells were treated with increasing concentrations of oligonucleotide diluted in Opti-MEM containing 10 μg/ml DOTMA solution (Bethesda Research Labs, Bethesda, Md.) for 4 hours at 370C. The medium was removed and replaced with EGM-UV (Clonetics, San Diego Calif.) plus oligonucleotide. Tumor necrosis factor α was added to the medium (2.5 ng/ml) and the cells were incubated an additional 4 hours at 37° C.
ELAM-1 expression was determined by ELISA. Cells were gently washed three times with Dulbecco's phosphate-buffered saline (D-PBS) prewarmed to 37° C. Cells were fixed with 95% ethanol at 4° C. for 20 minutes, washed three times with D-PBS and blocked with 2% BSA in D-PBS. Cells were incubated with ELAM-1 monoclonal antibody BBA-1 (R&D Systems, Minneapolis Minn.) diluted to 0.5 μg/ml in D-PBS containing 2% BSA for 1 hour at 37° C. Cells were washed three times with D-PBS and the bound ELAM-1 antibody detected with biotinylated goat anti-mouse secondary antibody followed by β-galactosidase-conjugated streptavidin as described in Example 1.
Inhibition of VCAM-1 expression by fifteen antisense phosphorothioate oligonucleotides was determined using the ELISA assay approximately as described in Example 12, except that cells were stimulated with TNF-àfor 16 hours and VCAM-1 expression was detected by a VCAM-1 specific monoclonal antibody (R & D Systems, Minneapolis, Minn.) used at 0.5 μg/ml.

Substance | inhibition of ICAM-1 expression, relative activity in words (ICAM-1) | VCAM-1 EXPRESSION 30 nM oligo (VCAM-1 expression is given as % of control) (VCAM-1) | VCAM-1 EXPRESSION 50 nM oligo (VCAM-1 expression is given as % of control) (VCAM-1) | IC50 (VCAM-1) [nM]
ISIS 1931: P=S, human ICAM-1 AUG Codon (55-74), SEQ ID NO 7, CATAGCGAGGCTGAGGTTGC (antisense dC*dA*dT*dA*dG*dC*dG*dA*dG*dG*dC*dT*dG*dA*dG*dG*dT*dT*dG*dC) | inhibit ICAM-1 expression | – | – | –
ISIS 1934: P=S, human ICAM-1 Coding Region (351-370), SEQ ID NO 10 (antisense dT*dG*dC*dC*dC*dA*dT*dC*dA*dG*dG*dG*dC*dA*dG*dT*dT*dT*dG*dA) | weak activity | – | – | –
ISIS 2307: P=S, human ICAM-1 3′-Untranslated (1976-1995), SEQ ID NO 26 (antisense dT*dG*dT*dC*dC*dT*dC*dA*dT*dG*dG*dT*dG*dG*dG*dG*dC*dT*dA*dT) | least active of the series | – | – | –
ISIS 3805: phosphorothioate, human VCAM-1 3′-UTR 2826-2845, SEQ ID NO 71, CCCGGCATCTTTACAAAACC (DNA, all phosphorothioate, methylation of C not given here) | – | 7.7 % of control | 44.9 % of control | ≤ 50
ISIS 5862: phosphorothioate, human VCAM-1 5′-UTR 48-68, SEQ ID NO 62, CCTGTGTGTGCCTGGGAGGG (DNA, all phosphorothioate, methylation of C not given here) | – | 115.0 % of control | 3.5 % of control | –
ISIS 1935: P=S, human ICAM-1 Coding Region (889-908), SEQ ID NO 11 (antisense dG*dG*dT*dC*dA*dC*dA*dC*dT*dG*dA*dC*dT*dG*dA*dG*dG*dC*dC*dT) | weak activity | – | – | –
ISIS 3792: phosphorothioate, human VCAM-1 AUG 110-129, SEQ ID NO 63, GGCATTTTAAGTTGCTGTCG (DNA, all phosphorothioate, methylation of C not given here) | – | 68.7 % of control | 33.7 % of control | ≤ 50
ISIS 1573: P=S, human ICAM-1 3′-Untranslated (2849-2866), SEQ ID NO 4, GAGGCTGAGGTGGGAGGA (antisense dG*dA*dG*dG*dC*dT*dG*dA*dG*dG*dT*dG*dG*dG*dA*dG*dG*dA) | not as active as ISIS-1939 | – | – | –
ISIS 1938: P=S (printed P = 5), human ICAM-1 Termination Codon (1668-1687), SEQ ID NO 14, CCTGTCCCGGGATAGGTTCA (antisense dC*dC*dT*dG*dT*dC*dC*dC*dG*dG*dG*dA*dT*dA*dG*dG*dT*dT*dC*dA) | moderate activity | – | – | –
ISIS 3800: phosphorothioate, human VCAM-1 3′-UTR 2620-2639, SEQ ID NO 70, GCAATCTTGCTATGGCATAA (DNA, all phosphorothioate, methylation of C not given here) | – | 64.4 % of control | 47.7 % of control | ≤ 50
ISIS 2973: 2′-O-methyl; P=S, human ICAM-1 3′-Untrans. (1952-1971), SEQ ID NO 15 (CCCCCACCACTTCCCCTCTC; listed as DNA, chemistry not fully specified) | did not exhibit this level of activity | – | – | –
ISIS 1937: P=S, human ICAM-1 Termination Codon (1651-1687), SEQ ID NO 13, TCAGGGAGGCGTGGCTTGTG (antisense dT*dC*dA*dG*dG*dG*dA*dG*dG*dC*dG*dT*dG*dG*dC*dT*dT*dG*dT*dG) | moderate activity | – | – | –
ISIS 5874: phosphorothioate, human VCAM-1 CODING 1032-1052, SEQ ID NO 65, CTTGAACAATTAATTCCACCT (DNA, all phosphorothioate, methylation of C not given here) | – | 66.5 % of control | 35.3 % of control | ≤ 50
ISIS 5875: phosphorothioate, human VCAM-1 CODING 2183-2203, SEQ ID NO 68, GTCTTTGTTGTTTTCTCTTCC (DNA, all phosphorothioate, methylation of C not given here) | – | 59.2 % of control | 34.8 % of control | ≤ 50
ISIS 1932: P=S, human ICAM-1 AUG Codon (72-91), SEQ ID NO 8, CGGGGGCTGCTGGGAGCCAT (antisense dC*dG*dG*dG*dG*dG*dC*dT*dG*dC*dT*dG*dG*dG*dA*dG*dC*dC*dA*dT) | slightly less active than ISIS 1570 and ISIS 1931 | – | – | –
ISIS 1936: P=S, human ICAM-1 Coding Region (1459-1468), SEQ ID NO 12 (antisense dC*dT*dC*dG*dC*dG*dG*dG*dT*dG*dA*dC*dC*dT*dC*dC*dC*dC*dT*dT) | weak activity | – | – | –
ISIS 1933: P=S, human ICAM-1 Coding Region (111-130), SEQ ID NO 9 (antisense dA*dG*dA*dG*dC*dC*dC*dC*dG*dA*dG*dC*dA*dG*dG*dA*dC*dC*dA*dG) | weak activity | – | – | –
ISIS 3801: phosphorothioate, human VCAM-1 3′-UTR 2872-2892, SEQ ID NO 50, AACCCAGTGCTCCCTTTGCT (DNA, all phosphorothioate, methylation of C not given here) | – | 36.5 % of control | 21.3 % of control | ≤ 50
ISIS 3794: phosphorothioate, human VCAM-1 TERMIN. 2344-2362, SEQ ID NO 69, TGAACATATCAAGCATTAGC (DNA, all phosphorothioate, methylation of C not given here) | – | 75.3 % of control | 52.6 % of control | –
ISIS 5876: phosphorothioate, human VCAM-1 CODING 2038-2057, SEQ ID NO 67, CTGTGTCTCCTGTCTCCGCT (DNA, all phosphorothioate, methylation of C not given here) | – | 43.5 % of control | 26.6 % of control | ≤ 50
ISIS 5885: phosphorothioate, human VCAM-1 E/I 1633-1649 + intron, SEQ ID NO 66, TTACCATTGACATAAAGTGTT (DNA, all phosphorothioate, methylation of C not given here) | – | 84.4 % of control | 52.4 % of control | –
ISIS 2634: 2′-fluoro A, C & U; P=S, human ICAM-1 AUG-Codon (64-81), SEQ ID NO 1 (antisense TGGGAGCCATAGCGAGGC; DNA at G, 2'-fluoro at ACT, all phosphorothioate, T or U not given here) | less effective | – | – | –
ISIS 2637: 2′-fluoro A, C & U, human ICAM-1 3′-Untrans. (1952-1971), SEQ ID NO 15 (antisense CCCCCACCACTTCCCCTCTC; all 2'-fluoro, backbone and T or U not given here; further chemistry not fully specified) | did not exhibit this level of activity | – | – | –
ISIS 2974: 2′-O-methyl; P=S, human ICAM-1 AUG Codon (64-81), SEQ ID NO 1 (TGGGAGCCATAGCGAGGC; listed as DNA, chemistry not fully specified) | approximately threefold less effective than ISIS 1570 | – | – | –
